The values below come from ChEMBL document CHEMBL1145572, “Analogues of N-hydroxy-N'-phenylthiourea and N-hydroxy-N'-phenylurea as inhibitors of tyrosinase and melanin formation” (Bioorg Med Chem Lett, 2008).

Calls of active or inactive are those of the source. The calls are words filed in the database; no cut-off is given here. A value given as a limit tells only on which side of the number the result lay.

The target of one experiment is T1, Tyrosinase (Agaricus bisporus, UniProt O42713).
T1 sequence (O42713 whole entry): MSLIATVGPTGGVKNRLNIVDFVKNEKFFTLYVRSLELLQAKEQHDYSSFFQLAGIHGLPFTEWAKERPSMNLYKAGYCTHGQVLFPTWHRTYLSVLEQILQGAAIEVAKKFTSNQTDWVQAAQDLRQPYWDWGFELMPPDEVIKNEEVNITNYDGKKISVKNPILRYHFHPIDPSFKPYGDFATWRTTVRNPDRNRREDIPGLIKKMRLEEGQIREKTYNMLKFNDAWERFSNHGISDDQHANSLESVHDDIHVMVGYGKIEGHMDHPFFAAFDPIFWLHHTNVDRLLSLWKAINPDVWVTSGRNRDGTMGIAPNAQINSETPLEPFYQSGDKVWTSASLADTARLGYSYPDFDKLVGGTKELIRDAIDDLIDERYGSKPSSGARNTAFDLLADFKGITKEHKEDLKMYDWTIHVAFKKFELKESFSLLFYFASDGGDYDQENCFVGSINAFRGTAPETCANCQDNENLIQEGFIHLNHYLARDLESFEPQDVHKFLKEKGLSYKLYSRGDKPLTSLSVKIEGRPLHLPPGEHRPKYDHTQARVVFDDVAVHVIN

The test system of experiment [1] is B16. Nature of the experiment: Inhibition of melanin production in mouse B16 cells at 100 uM. It is filed as functional.
The subject of experiment [2] is B16. The experiment in a line: Cytotoxicity against mouse B16 cells at 100 uM. The format is functional, cell-based.
For experiment [3], the system named is B16. The experiment in a line: Inhibition of melanin production in mouse B16 cells at 50 uM. It is filed as functional.

Description for Tyrosinase: Inhibition of mushroom tyrosinase

Turning to `O=C(NO)Nc1ccc(Br)cc1`, at Tyrosinase, the IC50 (in general, the concentration needed to halve the response being measured) is 2.7 µM. Moreover, the inhibition – broadly, the share of the control response that was lost under treatment – at 100 µM with B16 [1] was found to be 75.5%. Moreover, the result with B16 [2] was inactive.

Consider `NC(=O)Nc1ccccc1`, for which the IC50 on Tyrosinase was greater than 1000 µM. The outcome with B16 [1] was inactive.

In turn, `COc1ccc(NC(=O)NO)cc1` displayed an IC50 at Tyrosinase of 32 µM. For the same compound, the result with B16 [1] and in the experiment with B16 [2] was inactive.

Compound `O=C(NO)Nc1ccc(NC(=O)NO)cc1` had a half-inhibitory concentration (IC50) against Tyrosinase of 27 µM. Moreover, the inhibition at 100 µM in the experiment on B16 [1] amounted to 66%. The result in the experiment on B16 [2] was inactive.

In turn, `O=C(NO)Nc1ccc([N+](=O)[O-])cc1` showed an IC50 on Tyrosinase of 2.6 µM. 100 µM produced 86% inhibition with B16 [1]. Besides, the outcome in the experiment with B16 [2] was inactive.

On Tyrosinase, `CN(O)C(=O)Nc1ccc([N+](=O)[O-])cc1` came in with an IC50 of 770 µM. The compound also showed an inhibition at 100 µM with B16 [1] of 82%. The outcome in the experiment with B16 [2] was inactive.

`O=C(NO)Nc1ccc(C(F)(F)F)cc1`: the IC50 on Tyrosinase worked out at 4.3 µM. Further, 100 µM produced 79.3% inhibition in the experiment on B16 [1]. Further, the result with B16 [2] was inactive.

Regarding `CN(C(=O)NO)c1ccccc1`, the IC50 against Tyrosinase was 16 µM. The result in the experiment on B16 [2] was inactive.

`CN(O)C(=O)Nc1ccccc1`: the IC50 against Tyrosinase is greater than 1000 µM. The outcome with B16 [1] and in the experiment with B16 [2] was inactive.

In the case of `O=C(NO)Nc1ccc(OCc2ccccc2)cc1`, at Tyrosinase, the IC50 stood at 6.3 µM. For the same compound, the result in the experiment on B16 [1] and in the experiment with B16 [2] was inactive.

On Tyrosinase, `O=C(NO)Nc1ccc(O)cc1` displayed an IC50 of 41 µM. Further, the inhibition at 100 µM in the experiment with B16 [1] stood at 19%. Also, the outcome with B16 [2] was inactive.

As to `CN(O)C(=O)Nc1ccc(Br)cc1`, the IC50 on Tyrosinase is greater than 1000 µM. The outcome in the experiment on B16 [1] and in the experiment with B16 [2] was inactive.

In turn, `CONC(=O)Nc1ccccc1` displayed an IC50 at Tyrosinase greater than 1000 µM. In addition, the outcome in the experiment with B16 [1] and in the experiment with B16 [2] was inactive.

Compound `CN(O)C(=O)N(C)c1ccccc1` had an IC50 at Tyrosinase greater than 1000 µM. Besides, the result in the experiment with B16 [2] was inactive.

The compound `CONC(=O)N(C)c1ccccc1` had an IC50 against Tyrosinase greater than 1000 µM. In the experiment with B16 [2], the result was inactive.

At Tyrosinase, `CONC(=S)Nc1ccc([N+](=O)[O-])cc1` had an IC50 greater than 1000 µM. Moreover, in the experiment on B16 [3], the inhibition at 50 µM was 75.5%. The result in the experiment with B16 [2] was inactive.

With `CC(=O)N(O)C(=O)Nc1ccccc1`, at Tyrosinase, inhibition was half-maximal at 170 µM (IC50). Further, the result in the experiment with B16 [2] was inactive.

For the compound `OC[C@H]1O[C@@H](Oc2ccc(O)cc2)[C@H](O)[C@@H](O)[C@@H]1O` [ARBUTIN], the inhibition at 100 µM with B16 [1] was determined as 43.8%.

As for `CC(C)(C)[Si](C)(C)ONC(=O)Nc1ccccc1`, it took 70 µM to reach half-maximal inhibition against Tyrosinase (IC50). The outcome with B16 [1] and in the experiment on B16 [2] was inactive.

The compound `O=C(NO)Nc1ccccc1` returned an IC50 at Tyrosinase of 0.29 µM. The compound further displayed an inhibition at 100 µM in the experiment on B16 [1] of 78%. Further, the outcome in the experiment on B16 [2] was inactive.

In turn, `CCCCOc1ccc(NC(=O)NO)cc1` displayed an IC50 on Tyrosinase greater than 1000 µM. Also, the outcome in the experiment with B16 [1] and with B16 [2] was inactive.

Turning to `CONC(=S)Nc1ccc2ccccc2c1`, on Tyrosinase, the IC50 was 26 µM. The same compound gave an inhibition at 100 µM in the experiment on B16 [1] of 85%. Further, in the experiment on B16 [2], the result was inactive.

`ONC(=S)Nc1ccccc1` registered an IC50 on Tyrosinase greater than 1000 µM. The outcome in the experiment on B16 [1] and with B16 [2] was inactive.

As for `Oc1ccc(O)cc1` [HYDROQUINONE], at Tyrosinase, the IC50 is 37 µM. This counts as double-digit micromolar.

With `COc1ccc(NC(=O)NO)c(OC)c1`, the IC50 against Tyrosinase was greater than 1000 µM. In addition, the result with B16 [1] and in the experiment on B16 [2] was inactive.
